In patent US6417202B1, “Pyridylpyrrole compounds useful as interleukin-and TNF antagonists” (Pfizer Inc., priority 1996, dated 2002):

Row | SMILES | melting point [°C]
1 | CCC(=O)c1c(-c2ccncc2)[nH]c(-c2ccncc2)c1CC [Example 3, 4-Ethyl-3-propanoyl-2,5-di(4-pyridyl)-1H-pyrrole] | 209 to 211
2 | CC(=O)c1c(-c2ccncc2)[nH]c(-c2ccncc2)c1C(F)(F)F [Example 4, 3-Acetyl-2,5-di(4-pyridyl)-4-trifluoromethyl-1H-pyrrole] | 250 to 255
3 | CC(=O)c1c(-c2ccncc2)[nH]c(-c2ccncc2)c1-c1ccccc1 [Example 7, 3-Acetyl-4-phenyl-2,5-di(4-pyridyl)-1H-pyrrole] | 208 to 210
4 | CC(=O)c1c(-c2ccnc3ccccc23)[nH]c(-c2ccnc3ccccc23)c1C [Example 8, 3-Acetyl-4-methyl-2,5-di(4-quinolyl)-1H-pyrrole] | > 260
5 | CCOC(=O)c1c(-c2ccncc2)[nH]c(-c2ccncc2)c1CC [Example 10, 3-Ethoxycarbonyl-4-ethyl-2,5-di(4-pyridyl)-1H-pyrrole] | 212 to 215
6 | Cc1c(-c2ccncc2)[nH]c(-c2ccncc2)c1C(=O)OCc1ccccc1 [Example 13, 3-Benzyloxycarbonyl-4-methyl-2,5-di(4-pyridyl)-1H-pyrrole] | 204 to 205
7 | CCOC(=O)c1c(-c2ccncc2)[nH]c(-c2ccncc2)c1-c1ccccc1 [Example 18, 3-Ethoxycarbonyl-4-phenyl-2,5-di(4-pyridyl)-1H-pyrrole] | 99 to 100
8 | CCCCOC(=O)c1c(-c2ccncc2)[nH]c(-c2ccncc2)c1C [Example 19, 3-Butoxycarbonyl-4-methyl-2,5-di(4-pyridyl)-1H-pyrrole] | 182 to 186
9 | COCCOC(=O)c1c(-c2ccncc2)[nH]c(-c2ccncc2)c1C [Example 20, 3-(2-Methoxyethoxy)carbonyl-4-methyl-2,5-di(4-pyridyl)-1H-pyrrole] | 174 to 177
10 | COCc1c(-c2ccncc2)[nH]c(-c2ccncc2)c1C(=O)OC [Example 24, 3-Methoxycarbonyl-4-methoxymethyl-2,5-di(4-pyridyl)-1H-pyrrole] | 97 to 99
11 | CCOC(=O)c1c(-c2ccncc2)[nH]c(-c2ccncc2)c1-c1ccc([N+](=O)[O-])cc1 [Example 25, 3-Ethoxycarbonyl-4-(4-nitrophenyl)-2,5-di(4-pyridyl)-1H-pyrrole] | 274 to 276
12 | Cc1c(-c2ccncc2)[nH]c(-c2ccncc2)c1C=O [Example 26, 3-Formyl-4-methyl-2,5-di(4-pyridyl)-1H-pyrrole] | 278 to 280
13 | Cc1c(-c2ccncc2)[nH]c(-c2ccncc2)c1S(C)(=O)=O [Example 27, 3-Metha nesulfonyl-4-methyl-2,5-di(4-pyridyl)-1H-pyrrole] | 232 to 234
14 | Cc1c(-c2ccncc2)[nH]c(-c2ccncc2)c1CO [Example 39, 3-Hydroxymethyl-4-methyl-2,5-di(4-pyridyl)-1H-pyrrole] | 258 to 261
15 | CC(=O)c1cc(-c2ccncc2)[nH]c1C [Example 43, 3-Acetyl-2-methyl-5-(4-pyridyl)-1H-pyrrole] | 236 to 237
16 | CC(=O)c1c[nH]c(-c2ccncc2)c1C [Example 48, 3-Acetyl-4-methyl-5-(4-pyridyl)-1H-pyrrole] | 210 to 211
17 | Cc1c(-c2ccncc2)[nH]c2c1C(=O)CCC2 [Example 49, 3-Methyl-4-oxo-2-(4-pyridyl)-4,5,6,7-tetrahydro-1H-indole] | 248 to 249
18 | O=C1CCCc2c(-c3ccncc3)[nH]c(-c3ccccc3)c21 [Example 53, 4-Oxo-3-phenyl-1-(4-pyridyl)-4,5,6,7-tetrahydroisoindole] | 259 to 260
19 | O=C1CCCc2c(-c3ccccc3)[nH]c(-c3ccncc3)c21 [Example 54, 7-Oxo-3-phenyl-1-(4-pyridyl)-4,5,6,7-tetrahydroisoindole] | 254 to 255
20 | Cc1c(-c2ccncc2)[nH]c2c1C(=O)CC(C)(C)C2 [Example 55, 4-Oxo-2-(4-pyridyl)-3,6,6-trimethyl-4,5,6,7-tetrahydro-1H-indole] | 241 to 241.5
21 | Cc1c(-c2ccncc2)[nH]c2c1C(=O)CC(c1ccccc1)C2 (stereo not shown) [Example 56, 3-Methyl-4-oxo-6-phenyl-2-(4-pyridyl)-4,5,6,7-tetrahydro-1H-indole] | 256 to 257
22 | CC(=O)c1c(-c2cccc(Oc3ccc(F)cc3)c2)[nH]c(-c2ccncc2)c1C [Example 62, 3-Acetyl-2-{3-(4-fluorophenoxy)phenyl}-4-methyl-5-(4-pyridyl)-1H-pyrrole] | 158 to 159

More lines, now with the values ahead:

Row | melting point [°C] | SMILES
23 | 237 to 238 | CCC(=O)c1c(-c2ccncc2)[nH]c(-c2ccncc2)c1C [Example 5, 4-Methyl-3-propanoyl-2,5-di(4-pyridyl)-1H-pyrrole]
24 | 88 to 89 | CCCCC(=O)c1c(-c2ccncc2)[nH]c(-c2ccncc2)c1C [Example 6, 4-Methyl-2,5-di(4-pyridyl)-3-pentanoyl-1H-pyrrole]
25 | 237 to 239 | CC(=O)c1c(-c2ccncc2)[nH]c(-c2ccnc3ccccc23)c1C [Example 9, 3-Acetyl-4-methyl-2-(4-pyridyl)-5-(4-quinolyl)-1H-pyrrole]
26 | 206 to 208 | CCOC(=O)c1c(-c2ccncc2)[nH]c(-c2ccncc2)c1C [Example 11, 3-Ethoxycarbonyl-4-methyl-2,5-di(4-pyridyl)-1H-pyrrole]
27 | 224 to 224.5 | C=CCOC(=O)c1c(-c2ccncc2)[nH]c(-c2ccncc2)c1C [Example 14, 3-Allyloxycarbonyl-4-methyl-2,5-di(4-pyridyl)-1H-pyrrole]
28 | 218 to 221 | Cc1c(-c2ccncc2)[nH]c(-c2ccncc2)c1C(=O)OC(C)C [Example 15, 4-Methyl-3-(1-methylethoxy)carbonyl-2,5-di(4-pyridyl)-1H-pyrrole]
29 | 265 to 267 | Cc1c(-c2ccncc2)[nH]c(-c2ccncc2)c1C(=O)OC(C)(C)C [Example 16, 4-Methyl-3-(1,1-dimethylethoxy)carbonyl-2,5-di(4-pyridyl)-1H-pyrrole]
30 | 215 to 218 | CCCOC(=O)c1c(-c2ccncc2)[nH]c(-c2ccncc2)c1C [Example 17, 4-Methyl-3-propoxycarbonyl-2,5-di(4-pyridyl)-1H-pyrrole]
31 | 241 to 243 | CCc1c(-c2ccncc2)[nH]c(-c2ccncc2)c1C(C)=O [Example 28, 3-Acetyl-4-ethyl-2,5-di(4-pyridyl)-1H-pyrrole]
32 | 111 to 113 | CCCc1c(-c2ccncc2)[nH]c(-c2ccncc2)c1C(C)=O [Example 29, 3-Acetyl-4-propyl-2,5-di(4-pyridyl)-1H-pyrrole]
33 | 93 to 95 | CCCCc1c(-c2ccncc2)[nH]c(-c2ccncc2)c1C(C)=O [Example 31, 3-Acetyl-4-butyl-2,5-di(4-pyridyl)-1H-pyrrole]
34 | 205 to 207 | CC(=O)c1c(-c2ccncc2)[nH]c(-c2ccncc2)c1CO [Example 33, 3-Acetyl-4-hydroxymethyl-2,5-di(4-pyridyl)-1H-pyrrole]
35 | 212 to 215 | Cc1c(-c2ccncc2)[nH]c(-c2ccncc2)c1C(N)=O [Example 40, 3-Aminocarbonyl-4-methyl-2,5-di(4-pyridyl)-1H-pyrrole]
36 | 236 to 239 | CC(=O)c1c(C)[nH]c(-c2ccncc2)c1-c1ccncc1 [Example 42, 3-Acetyl-2-methyl-4,5-di(4-pyridyl)1H-pyrrole]
37 | 202 to 203 | CC(=O)c1c(-c2ccccc2)[nH]c(-c2ccncc2)c1C [Example 46, 3-Acetyl-4-methyl-2-phenyl-5-(4-pyridyl)-1H-pyrrole]
38 | 208 to 209 | CC(=O)c1c(-c2ccncc2)[nH]c(-c2ccccc2)c1C [Example 47, 3-Acetyl-4-methyl-5-phenyl-2-(4-pyridyl)-1H-pyrrole]
39 | 202 to 203 | CC(=O)c1c(-c2ccc(F)cc2)[nH]c(-c2ccncc2)c1C [Example 51, 3-Acetyl-2-(4-fluorophenyl)4-methyl-5-(4-pyridyl)-1H-pyrrole]
40 | 231 to 232 | CC(=O)c1c(-c2cccs2)[nH]c(-c2ccncc2)c1C [Example 52, 3-Acetyl-4-methyl-5-(4-pyridyl)-2-(2-thienyl)-1H-pyrrole]
41 | 193 to 195 | CC(=O)c1c(-c2cccc(N)c2)[nH]c(-c2ccncc2)c1C [Example 58, 3-Acetyl-2-(3-aminophenyl)-4-methyl-5-(4-pyridyl)-1H-pyrrole]
42 | 116 to 123 | CC(=O)c1c(-c2ccc3ccccc3c2)[nH]c(-c2ccncc2)c1C [Example 59, 3-Acetyl-4-methyl-2-(2-naphthyl)-5-(4-pyridyl)-1H-pyrrole]
43 | 97 to 100 | CC(=O)c1c(-c2ccc(C=O)cc2)[nH]c(-c2ccncc2)c1C [Example 60, 3-Acetyl-2-(4-formylphenyl)-4-methyl-5-(4-pyridyl)-1H-pyrrole]
44 | 218 to 220 | CC(=O)c1c(-c2cccc3ccccc23)[nH]c(-c2ccncc2)c1C [Example 61, 3-Acetyl-4-methyl-2-(1-naphthyl)-5-(4-pyridyl)-1H-pyrrole]
45 | 214 to 217 | CC(=O)c1c(-c2cccc([N+](=O)[O-])c2)[nH]c(-c2ccncc2)c1C [Example 64, 3-Acetyl-4-methyl-2-(3-nitrophenyl)-5-(4-pyridyl)-1H-pyrrole]
46 | 182 to 186 | CC(=O)c1c(-c2cccnc2)[nH]c(-c2ccncc2)c1C [Example 65, 3-Acetyl-4-methyl-2-(3-pyridyl)-5-(4-pyridyl)-1H-pyrrole]
47 | 206 to 209 | CC(=O)c1c(-c2ccc(F)c(Cl)c2)[nH]c(-c2ccncc2)c1C [Example 66, 3-Acetyl-2-(3-chloro-4-fluorophenyl)-4-methyl-5-(4-pyridyl)-1H-pyrrole]
48 | 150 to 155 | C=Cc1[nH]c(-c2ccncc2)c(C)c1C(C)=O [Example 67, 3-Acetyl-4-methyl-5-(4-pyridyl)-2-vinyl-1H-pyrrole]
49 | 187.5 to 189.5 | CC(=O)c1c(-c2ccc(Cl)cc2)[nH]c(-c2ccncc2)c1C [Example 68, 3-Acetyl-2-(4-chlorophenyl)-4-methyl-5-(4-pyridyl)-1H-pyrrole]
